Structures can show the parent of a compound that is named as a salt.
Tests used:
serotonin reuptake sites = target: T1, serotonin reuptake sites (Rattus norvegicus, UniProt P31652); test: In vitro affinity for serotonin reuptake sites ([3H]-paroxetine binding assay); conditions: receptor binding; read-out: 5-HT reuptake binding pKi (converted)
T1 construct: from tissue
Experimental: In Vitro Affinity for Serotonin Reuptake Sites
Affinity of the compounds for serotonin reuptake sites was determined using the receptor binding assay described by E. Habert et al.: “Characterisation of [^3H]-paroxetine binding to rat cortical membranes”, Eur. J. Pharmacol., 118, 107-114, 1985.

[1] = target: T2, Human dopamine D2,L receptors (Homo sapiens, UniProt P14416); test: Inhibition of forskolin-induced [3H]-cAMP accumulation in CHO-K1 cells; format: cell-based; conditions: cloned human dopamine D2,L receptors in CHO-K1 cells; full agonist ε=1, full antagonist ε=0
T2 construct: host or cells: CHO-K1
Experimental: Inhibition of Forskolin-Induced [^3H]-cAMP Accumulation
The in vitro functional activity at dopamine-D2 receptors, including the intrinsic activity (ε) of the compounds of the invention was measured by their ability to inhibit forskolin-induced [^3H]-cAMP accumulation.
Human dopamine D2,L receptors were cloned in fibroblast cell line CHO-K1 cells and obtained from Dr. Grandy, Vollum Institute, Portland, Oreg., USA. CHO cells were grown in a Dulbecco's modified Eagle's medium (DMEM) culture medium, supplemented with 10% heat-inactivated fetal calf serum, 2 mM glutamine, 1 mM pyruvate, 5000 units/ml penicillin, 5000 μg/ml streptomycin and 200 μg/ml G-418 at 37° C. in 93% air/7% CO2. For incubation with test compounds, confluent cultures grown in 24 wells plates were used. Each condition or substance was routinely tested in quadruplicate. Cells were loaded with 1 μCi [^3H]-adenine in 0.5 ml medium/well. After 2 hours, cultures were washed with 0.5 ml PBS containing 1 mM of the phosphodiesterase inhibitor isobutylmethylxanthine (IBMX) and incubated for 20 min with 0.5 ml PBS containing 1 mM IBMX and forskolin with or without test compound. After aspiration the reaction was stopped with 1 ml trichloroacetic acid 5% (w/v). […] 0.8 ml Extract was passed over Dowex (50WX-4 200-400 mesh) and aluminumoxide columns, eluted with water and 0.1M imidazole (pH=7.5). Eluates were mixed with 7 ml Insta-gel and radioactivity was counted with a liquid scintillation counter. The conversion of [^3H]-ATP into [^3H]-cAMP was expressed as the ratio in percentage radioactivity in the cAMP fraction as compared to combined radioactivity in both cAMP and ATP fractions, and basal activity was subtracted to correct for spontaneous activity.
Test compounds were obtained as 10 mM stock solutions in 100% DMSO, and diluted in PBS/IBMX to final concentrations. Typically, compounds were used in concentrations that ranged from 10^−10M to 10^−5M. From quadruplicate data counts, the mean was taken as an estimate for drug-induced, receptor-mediated effects at specified second messenger accumulation, expressed as percentage of control values (forskolin-stimulated cAMP accumulation, subtracted by basal activity). By using the non-linear curve-fitting program INPLOT or the Excel-add-in XL-Fit, mean values were plotted against drug concentration (in molar) and a sigmoid curve (four-parameter logistic curve) was constructed. The maximal forskolin-induced stimulated conversion is taken as maximum value and the maximal inhibition (usually at drug concentrations 10^−6 M or 10^−5 M) as minimum and these values were fixed during the fitting process. Thus, concentrations of the compound, causing 50% of the maximally obtained inhibition of forskolin-induced cAMP accumulation (EC50), are averaged over several experiments and presented as mean pEC50±SEM. Antagonist potency is assessed by co-incubating cells with a fixed agonist concentration and specified antagonist concentrations. Curve fitting procedures are identical to those used for estimating EC50 values. Thus IC50 values, i.e. the concentration that is able to achieve 50% of maximal antagonism that can be achieved by this compound. IC50 values are corrected using a Cheng-Prussoff equation, correcting it for agonist concentration and EC50 values that is obtained in the same experiment. Thus, Kb=IC50/(1+[agonist]/EC50, agonist). The corresponding pA2 value is −log (Kb). Concentration-response curve fitting allows estimation of pEC50 values and of maximal achievable effect (intrinsic activity or efficacy (ε). A full receptor agonist has ε=1, a full receptor antagonist has ε=0, and a partial receptor agonist has an intermediate intrinsic activity.

dopamine-D2 receptors = target: T3, dopamine-D2 receptors (Rattus norvegicus, UniProt P61169); test: In vitro affinity for dopamine-D2 receptors ([3H]-spiroperidol receptor binding assay); conditions: read-out: Dopamine-D2 binding pKi (converted)
T3 construct: labels dopamine receptors in rat pituitary and brain; from tissue
Experimental: In Vitro Affinity for Dopamine-D2 Receptors
Affinity of the compounds for dopamine-D2 receptors was determined using the receptor binding assay described by 1. Creese, R. Schneider and S. H. Snyder: “[^3H]-Spiroperidol labels dopamine receptors in rat pituitary and brain”, Eur. J. Pharmacol., 46, 377-381, 1977.

T3 sequence (P61169 whole entry): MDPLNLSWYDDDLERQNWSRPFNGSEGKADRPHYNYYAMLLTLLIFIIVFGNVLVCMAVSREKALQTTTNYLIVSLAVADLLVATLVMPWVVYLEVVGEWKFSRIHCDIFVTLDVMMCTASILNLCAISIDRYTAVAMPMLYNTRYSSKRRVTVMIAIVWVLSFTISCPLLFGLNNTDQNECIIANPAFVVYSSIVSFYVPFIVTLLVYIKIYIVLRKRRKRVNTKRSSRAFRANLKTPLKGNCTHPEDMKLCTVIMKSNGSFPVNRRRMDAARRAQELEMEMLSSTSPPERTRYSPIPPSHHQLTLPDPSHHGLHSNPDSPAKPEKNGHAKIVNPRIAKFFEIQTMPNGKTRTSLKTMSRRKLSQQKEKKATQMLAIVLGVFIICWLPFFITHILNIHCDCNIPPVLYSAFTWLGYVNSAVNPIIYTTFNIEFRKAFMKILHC
T2 sequence (P14416 whole entry): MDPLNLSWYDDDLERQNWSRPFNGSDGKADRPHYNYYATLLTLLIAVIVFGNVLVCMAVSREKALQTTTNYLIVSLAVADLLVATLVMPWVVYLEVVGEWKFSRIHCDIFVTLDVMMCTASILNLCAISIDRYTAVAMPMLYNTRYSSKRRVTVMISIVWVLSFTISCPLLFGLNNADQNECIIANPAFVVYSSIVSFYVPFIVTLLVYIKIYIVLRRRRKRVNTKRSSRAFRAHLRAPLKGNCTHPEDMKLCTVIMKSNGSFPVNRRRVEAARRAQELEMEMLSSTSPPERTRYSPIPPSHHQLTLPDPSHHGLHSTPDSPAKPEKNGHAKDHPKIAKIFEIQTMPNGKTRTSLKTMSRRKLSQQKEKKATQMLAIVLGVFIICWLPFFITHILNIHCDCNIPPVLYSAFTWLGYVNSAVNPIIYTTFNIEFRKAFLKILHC
T1 sequence (P31652 whole entry): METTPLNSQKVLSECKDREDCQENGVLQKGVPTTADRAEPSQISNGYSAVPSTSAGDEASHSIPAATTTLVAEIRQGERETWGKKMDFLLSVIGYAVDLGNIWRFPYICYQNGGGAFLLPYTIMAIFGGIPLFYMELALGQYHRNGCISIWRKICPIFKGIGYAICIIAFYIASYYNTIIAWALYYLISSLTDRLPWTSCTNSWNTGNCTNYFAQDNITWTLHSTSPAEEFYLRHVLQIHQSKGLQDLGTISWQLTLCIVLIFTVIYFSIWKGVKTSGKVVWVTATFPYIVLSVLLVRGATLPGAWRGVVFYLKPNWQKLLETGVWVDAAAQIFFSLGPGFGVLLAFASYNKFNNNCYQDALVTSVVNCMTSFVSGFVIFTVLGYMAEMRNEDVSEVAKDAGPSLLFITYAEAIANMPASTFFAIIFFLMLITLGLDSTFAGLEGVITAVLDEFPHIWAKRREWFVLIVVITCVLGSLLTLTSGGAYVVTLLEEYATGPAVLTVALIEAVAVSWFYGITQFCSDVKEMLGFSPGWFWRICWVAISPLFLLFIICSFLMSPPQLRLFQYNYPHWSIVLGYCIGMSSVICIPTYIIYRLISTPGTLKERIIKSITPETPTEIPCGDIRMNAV

Row | SMILES | melting point | Ki (serotonin reuptake sites) | Dopamine-D2 cAMP accum ε (intrinsic activity) [1] | Ki (dopamine-D2 receptors)
1 | CN(CCN1CCN(c2cccc3[nH]c(=O)oc23)CC1)c1cccc(C#N)c1 (as salt: HCl) [compound 14] | 230 to 231 °C | – | – | –
2 | CN(CCCN1CCN(c2cccc3[nH]c(=O)oc23)CC1)c1cccc(C#N)c1 (as salt: HCl) [compound 15] | 195 to 196 °C | – | – | –
3 | N#Cc1cccc(SCCCCN2CCN(c3cccc4[nH]c(=O)oc34)CC2)c1 (as salt: HCl) [compound 20] | 168 to 170 °C | – | – | –
4 | N#Cc1cccc(OCCCN2CCN(c3cc(Cl)cc4[nH]c(=O)oc34)CC2)c1 (as salt: HCl) [compound 26] | 251 to 254 °C | – | – | –
5 | N#Cc1cccc(OCCCCN2CCN(c3cccc4[nH]c(=O)oc34)CC2)c1 [compound 6] | 165 to 168 °C | 3.98 nM | 0.76 | 1 nM
6 | O=c1[nH]c2cccc(N3CCN(CCCCOc4cccc(F)c4)CC3)c2o1 [compound 9] | 153 to 155 °C | 100 nM | 0.64 | 6.31 nM
7 | CN(CCN1CCN(c2cccc3[nH]c(=O)oc23)CC1)c1cccc(C#N)c1 [compound 14] | – | 1 nM | 0.57 | 15.8 nM
8 | CN(CCCN1CCN(c2cccc3[nH]c(=O)oc23)CC1)c1cccc(C#N)c1 [compound 15] | – | 0.794 nM | 0.61 | 6.31 nM
9 | O=c1[nH]c2cccc(N3CCN(CCCOc4cccc(C(F)(F)F)c4)CC3)c2o1 [compound 17] | 140 to 142 °C | 50.1 nM | 0.51 | 25.1 nM
10 | N#Cc1cccc(SCCCCN2CCN(c3cccc4[nH]c(=O)oc34)CC2)c1 [compound 20] | – | 3.16 nM | 0.98 | 3.98 nM
11 | COc1ccc(C#N)cc1OCCCN1CCN(c2cccc3[nH]c(=O)oc23)CC1 [compound 24] | 189 to 190 °C | 12.6 nM | 0.86 | 1.26 nM
12 | N#Cc1cccc(OCCCN2CCN(c3cc(Cl)cc4[nH]c(=O)oc34)CC2)c1 [compound 26] | – | 10 nM | 0.79 | 10 nM
13 | Cn1c(=O)oc2c(N3CCN(CCCCOc4cccc(F)c4)CC3)cccc21 [compound 31] | 95 to 97 °C | 5.01 nM | 0.56 | 63.1 nM
14 | CN(CCCCN1CCN(c2cccc3c2oc(=O)n3C)CC1)c1cccc(C#N)c1 [compound 35] | 87 to 89 °C | 0.631 nM | 0.55 | 100 nM
